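Cultured in 96-well plates, cells were exposed to test compound for 48 hours across five concentrations. GI50 is the concentration that inhibits growth by half. The concentration for full growth arrest is given as TGI.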
What was measured:
Assay in all cases: NCI tumour cell line growth inhibition, 48 h
DLD-1 colon = test system: DLD-1 colon
DMS 114 small cell lung = test system: DMS 114 small cell lung
DMS 273 small cell lung = test system: DMS 273 small cell lung
HOP-18 NSCLC = test system: HOP-18 NSCLC
SNB-78 CNS = test system: SNB-78 CNS
SN12K1 renal = test system: SN12K1 renal
XF 498 CNS = test system: XF 498 CNS
P388/ADR leukemia = test system: P388/ADR leukemia
KM20L2 colon = test system: KM20L2 colon
LXFL 529 NSCLC = test system: LXFL 529 NSCLC

| Compound | GI50 (DLD-1 colon) [µM] | TGI (DLD-1 colon) [µM] | GI50 (DMS 114 small cell lung) [µM] | TGI (DMS 114 small cell lung) [µM] | GI50 (DMS 273 small cell lung) [µM] | TGI (DMS 273 small cell lung) [µM] | GI50 (HOP-18 NSCLC) [µM] | TGI (HOP-18 NSCLC) [µM] | GI50 (SNB-78 CNS) [µM] | TGI (SNB-78 CNS) [µM] | TGI (SN12K1 renal) [µM] | TGI (XF 498 CNS) [µM] | TGI (P388/ADR leukemia) [µM] | TGI (KM20L2 colon) [µM] | TGI (LXFL 529 NSCLC) [µM] | GI50 (SN12K1 renal) [µM] | GI50 (XF 498 CNS) [µM] | GI50 (P388/ADR leukemia) [µM] | GI50 (KM20L2 colon) [µM] |
| --- | --- | --- | --- | --- | --- | --- | --- | --- | --- | --- | --- | --- | --- | --- | --- | --- | --- | --- | --- |
| N#C[S-].[La+3].c1ccc(-c2ccccn2)nc1.c1ccc(-c2ccccn2)nc1.c1ccc(-c2ccccn2)nc1 | 17.2 | > 100 | 26.1 | 97.2 | 19.1 | 88.5 | 27.1 | > 100 | 59.4 | > 100 | – | – | – | – | – | – | – | – | – |
| Cc1c2cc[n+](Cc3ccc(I)cc3)cc2c(C)c2c1[nH]c1ccccc12 | – | > 25 | – | 2.63 | – | 6.17 | – | > 13.2 | – | > 25 | 5.92 | 1.17 | > 25 | > 15.4 | – | – | – | – | – |
| Cc1nc2ccc(NCCN(C)C)c3c(=O)c4ccccc4n1c23 | – | 21.3 | – | 21.5 | – | – | – | 51.2 | – | 23.9 | – | – | – | 16.9 | 22.6 | – | – | – | – |
| COc1cc2c(oc(=O)c3c4occc4cc(OC)c23)c2cccc(O)c12 | – | > 100 | – | > 100 | – | > 100 | – | > 100 | – | > 100 | – | > 100 | – | > 100 | > 100 | – | – | – | – |
| Nc1nc(Cl)c2ncn(CCCC(c3ccccc3)P(=O)(O)O)c2n1 (configuration not stated) | – | > 100 | – | > 100 | – | > 100 | – | > 100 | – | > 100 | – | – | – | > 100 | > 100 | – | – | – | – |
| Nc1nc(SCc2ccccc2Cl)c2ncn(C3OC(CO)C(O)C3O)c2n1 (configuration not stated) | – | > 100 | – | > 100 | – | > 100 | – | > 100 | – | – | – | – | – | > 100 | > 100 | – | – | – | – |
| Nc1cccc(-c2cc(=O)c3cc4c(cc3[nH]2)OCO4)c1 | – | – | – | – | – | 3.83 | – | > 100 | – | > 100 | – | > 100 | – | – | > 100 | – | – | – | – |
| C/C(=C\C(=O)Nc1ccc2n[nH]nc2c1)Nc1ccc2n[nH]nc2c1 | – | > 100 | – | > 100 | – | – | – | > 100 | – | > 100 | – | – | – | > 100 | > 100 | – | – | – | – |
| [CH3][Sn]([CH3])([CH3])[S]C(=S)N1CCOCC1 | 0.162 | 5.54 | 0.772 | 3.72 | 0.508 | 6.13 | 3.85 | > 100 | 9.94 | > 100 | 12.1 | 5.97 | 0.902 | 8.2 | – | 1.12 | 0.643 | 0.136 | 0.789 |
| CCOc1ccc(C2=NN(CC)C(=O)C(C3C(=O)N(c4ccccc4)N=C3C)C2)cc1 (configuration not stated) | – | > 100 | – | > 100 | – | > 100 | – | > 100 | – | > 100 | – | > 100 | – | > 100 | > 100 | – | – | – | – |
| Brc1ccc2[nH]c3c(C4=NCCC4)nccc3c2c1 | – | > 43.4 | – | > 57.8 | – | > 76 | – | > 85.8 | – | > 100 | > 25.7 | > 72.2 | > 23.8 | 23.3 | – | – | – | – | – |
| CNC(=S)N/N=C/C(C)=N/NC(=S)NC | – | – | – | > 100 | – | > 100 | – | > 100 | – | > 100 | – | – | – | > 100 | – | – | – | – | – |
